Data set [1] concerns the target dipeptidyl peptidase (DP IV) (UniProt P27487). The data set can be described thus: Determination of IC50 against DP IV (hydrolysis of Gly-Pro-pNA). The data set is classed as biochemical, porcine kidney or recombinant human. Particulars: compounds obtained by preparative synthesis. On the procedure:
Determination of IC50 Against DP IV
Substances are screened for inhibition of dipeptidyl peptidase (DP IV) by their ability to inhibit the hydrolysis of the DP IV specific substrate Glycyl-Prolyl-4-Nitroanilide (Gly-Pro-pNA). All compounds are diluted in DMSO and IC50 will be determined with 11 serial dilutions (1:2) starting with an final concentration of 100 μM. The final DMSO concentration in the assay is 5% (v/v). The method was automated using a Tecan Genesis Freedom liquid handler and a Genius Pro (Tecan) microplate reader.
A stock solution of 0.102 M HEPES is prepared. Ionic strength (I=0.32) is adjusted by KCl and pH (pH 7.6) by KOH.
2.16 mM solution of Gly-Pro-pNA in deionized water is prepared.
All samples are dissolved in DMSO preparing a 10 mM stock solution.
DP IV from porcine kidney (pDP IV) or recombinant human DP IV (rhDP IV) is diluted in HEPES buffer to a final activity of approximately 40-50 μU*ml^−1. The DP IV is stored in a cooling rack (4° C.) on the liquid handler.
The assay may becarried out at room temperature using Freedom liquid handler connected with a Genios Pro microplate reader. Each sample is measured in duplicate. Each sample stock solution is prediluted with DMSO in a ratio of 1:5 in a polypropylen 96-well plate. From this predilution 10 serial (1:2) dilutions in DMSO are prepared. 13.5 μl of the 11 DMSO dilutions and DMSO alone are transferred to the measurement microplate (duplicates) and 86.5 μl water, 100 μl HEPES buffer and 50 μl substrate solution are added to each well. The enzymatic reaction is started by addition of 20 μl enzyme solution to each well, and then the microplate is immediately transferred to the microplate reader.
After short mixing (20 s) the release of 4-Nitroanilin (pNA) is monitored at 405 nm for 30 cycles (approx. 18 min).
Post assay calculations are done by the Magellan (Tecan) and Graphit Software. The linear slopes are calculated for each well and averaged for the duplicates. The residue activities are calculated in relation to a sample containing only solvent instead of inhibitor and expressed in %. Residue activities are plotted against the log of inhibitor concentrations and IC50 is calculated by an 4-parameter fitting ranging from 0 to 100%.

The target of data set [2] is T1, DP IV (Homo sapiens, UniProt P27487). The data set can be described thus: Ki and inhibition type, DP IV. As to conditions: compounds obtained by preparative synthesis. The class given is biochemical. On the procedure:
Measurement of DP IV activities for Ki determination is carried out as described for IC50. For Ki determination samples were analysed in triplicates. 7 serial dilutions of the inhibitor (range calculated from the IC50 determination) in water are analyzed with 4 serial dilutions of the substrate.
Data are analysed by non-linear regression to the inhibitor equations using Graphit software. Ki-value and inhibition type are determined using the inhibitor equation (competitive, partiell competitive, non-competitive) which gives the best fitting results. […]

The next data set concerns the target DPII (Homo sapiens, UniProt Q9UHL4). The data set can be described thus: DPII assay. As to conditions: for Selectivity DPII(IC50)/DPIV(Ki): ratio IC50 DPII / Ki DP IV; for pIC50: sodium acetate buffer pH 5.5, Gly-Pro-AMC 1 mM. The data set is classed as biochemical. As to the method:
(§1) Determination of IC50 values for DPII and DP9 are done similarly as described for DP IV.
For DPII instead of the HEPES buffer a 0.2 M sodium acetate buffer pH 5.5 is used. As substrate Gly-Pro-AMC is used in a final concentration of 1 mM.

Another data set has as its target DP9 (Homo sapiens, UniProt Q86TI2). The experiment in a line: DP9 assay. Particulars: for pIC50: Gly Pro-AMC 0.25 mM; for Selectivity DP9(IC50)/DPIV(Ki): ratio IC50 DP9 / Ki DP IV. The data set is classed as biochemical. As to the method: as §1
For DP9 Gly Pro-AMC is used as substrate in a final concentration of 0.25 mM.

In data set [3] the test system is liver cell carcinoma cell line Hep-G2. The data set can be described thus: Cytotoxicity screening and LD50 determination on Hep-G2 (LDH, CytoTox-One). The class given is cell-based. Particulars: 100 μM; for Cytotox 100 μM (%) HEPG2 / Viability 100 μM (%) HEP-G2: 24 h; for Cytotox 100 μM (%) HEPG2: LDH activity in cell culture media, lysed untreated cells = 100%; for Viability 100 μM (%) HEP-G2: LDH of lysed cells, untreated control = 100%; for cytotoxic effects (summary in words): Hep-G2. On the procedure:
Cytotoxicity of the compounds may be screened using the liver cell carcinoma cell line Hep-G2.
After 24 h of cultivation in a 96 well plate (50 000 cells/well) compounds (dissolved in DMSO) are added and cytotoxicity and vitality of the cells are analysed after another 24 h of cultivation using the CytoTox-One Homogenoeous membrane toxicity assay (Promega).
Three concentrations (100 μM, 2 μM, 40 nM) of each compound are analysed in triplicates. The final DMSO concentration was 1%.
For cytotoxicity the LDH activity in the cell culture media after 24 h of incubation are analysed. The untreated control is set to 0% cytotoxicity. For the 100% value LDH activity of lysed untreated cells are analysed.
For viability cell culture media are removed from the cells and all cells are lysed using the lysis buffer. LDH activity is determined and untreated control is set to 100% viability.
For determination of LD50 the liver carcinoma cell line HEP-G2 and the neuroblastoma cell line SY5Y may be used. The effect of 8 serial dilutions of the compounds (highest concentration 1 mM) is investigated as described above.
The cytotoxicity of certain example compounds (in each case prepared by preparative synthesis) was screened using Hep-G2 cells. Compounds were tested in concentrations of 100 μM, 2 μM and 40 nM.

Data set [4] deals with T1, DP IV. The data set can be described thus: DP IV inhibition IC50, parallel-synthesis compounds tested directly following synthesis (without purification). The data set is classed as biochemical. More on the design: IC50 DP4; other: tested directly following parallel synthesis, without purification; compounds of formula (Ib) from parallel synthesis, tested directly following synthesis. Put shortly: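 Porcine kidney or recombinant human enzyme (~40-50 μU/ml, HEPES buffer) hydrolysing Gly-Pro-pNA at room temperature, with 5% DMSO final; 11-point 1:2 dilutions from 100 μM final, in duplicate. pNA release read at 405 nm over ~18 min; slopes vs solvent control give residual activity, and IC50 comes from a 4-parameter fit.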

Where [5] appears, read: DP IV inhibition, compounds of formula (Ib) from parallel synthesis, tested directly following synthesis (without purification), read-out: IC50.
Where [6] appears, read: tested directly following parallel synthesis, without purification, read-out: IC50 DP4.

The structures appear in SMILES notation. pIC50, pKi: −log10 of the molar value. “Also recorded” adds a separate entry of the source. Where two headings read alike, the source gives them in different places.

What is called pIC50 is −log10 of the IC50, conventionally taken in molar units. One may read the pKi as the negative decadic logarithm of the Ki, by convention in mol/L.

T1 sequence (P27487 whole entry): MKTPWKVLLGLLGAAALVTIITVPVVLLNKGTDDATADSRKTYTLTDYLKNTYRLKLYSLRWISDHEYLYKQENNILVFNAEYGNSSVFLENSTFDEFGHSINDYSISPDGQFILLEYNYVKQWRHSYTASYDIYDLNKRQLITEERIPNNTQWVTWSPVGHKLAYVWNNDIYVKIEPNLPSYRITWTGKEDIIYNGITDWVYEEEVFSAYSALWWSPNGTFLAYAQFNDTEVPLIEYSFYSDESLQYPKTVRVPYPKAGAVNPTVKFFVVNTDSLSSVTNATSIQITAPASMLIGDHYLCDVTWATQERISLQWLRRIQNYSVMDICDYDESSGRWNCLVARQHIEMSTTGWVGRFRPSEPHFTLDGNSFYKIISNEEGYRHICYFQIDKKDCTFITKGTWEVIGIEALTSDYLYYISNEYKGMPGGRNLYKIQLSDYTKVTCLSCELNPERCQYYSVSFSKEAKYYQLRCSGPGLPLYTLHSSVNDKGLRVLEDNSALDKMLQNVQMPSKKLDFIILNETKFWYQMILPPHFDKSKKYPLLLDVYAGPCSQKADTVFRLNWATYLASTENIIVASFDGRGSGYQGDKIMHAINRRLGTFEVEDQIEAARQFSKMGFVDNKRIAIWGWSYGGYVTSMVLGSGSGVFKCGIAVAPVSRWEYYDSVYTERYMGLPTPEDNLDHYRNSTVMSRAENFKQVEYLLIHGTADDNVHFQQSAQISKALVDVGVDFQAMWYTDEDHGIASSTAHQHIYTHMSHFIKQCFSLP
Sequence of DP9 (Q86TI2 whole entry, species assumed): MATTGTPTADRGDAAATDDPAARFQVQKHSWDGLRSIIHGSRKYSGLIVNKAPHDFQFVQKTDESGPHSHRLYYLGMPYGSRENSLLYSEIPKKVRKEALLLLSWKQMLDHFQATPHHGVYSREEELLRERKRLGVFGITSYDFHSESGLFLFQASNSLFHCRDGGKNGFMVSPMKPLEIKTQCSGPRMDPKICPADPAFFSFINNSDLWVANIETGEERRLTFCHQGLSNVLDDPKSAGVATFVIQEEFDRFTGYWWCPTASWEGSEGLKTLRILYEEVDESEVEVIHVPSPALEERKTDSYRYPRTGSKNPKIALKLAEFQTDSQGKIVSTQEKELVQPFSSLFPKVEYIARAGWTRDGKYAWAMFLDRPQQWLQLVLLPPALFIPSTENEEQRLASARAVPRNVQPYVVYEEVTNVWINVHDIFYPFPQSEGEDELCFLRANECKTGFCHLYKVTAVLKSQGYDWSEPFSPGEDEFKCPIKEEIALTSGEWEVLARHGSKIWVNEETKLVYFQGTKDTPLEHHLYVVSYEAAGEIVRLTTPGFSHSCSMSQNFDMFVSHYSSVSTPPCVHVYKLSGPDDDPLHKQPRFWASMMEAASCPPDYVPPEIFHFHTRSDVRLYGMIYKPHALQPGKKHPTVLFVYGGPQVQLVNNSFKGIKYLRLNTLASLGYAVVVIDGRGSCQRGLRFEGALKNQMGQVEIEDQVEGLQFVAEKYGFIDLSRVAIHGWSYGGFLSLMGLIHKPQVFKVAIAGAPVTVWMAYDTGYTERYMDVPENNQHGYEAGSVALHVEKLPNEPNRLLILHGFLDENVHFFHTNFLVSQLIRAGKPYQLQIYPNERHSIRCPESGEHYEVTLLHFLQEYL

Regarding `NCc1c(-c2ccc(Cl)cc2Cl)ncn1CCCCCO` [Example 38b, 5-[5-aminomethyl-4-(2,4-dichloro-phenyl)-imidazol-1-yl]-pentan-1-ol], in data set [1], the pIC50 is 6.07. Moreover, the pKi on DP IV [2] is 7.39. At DPII, the “Selectivity DPII(IC50)/DPIV(Ki)” value is given as 1,474 and the pIC50 was 4.22. On DP9, the pIC50 was 4.33 and the “Selectivity DP9(IC50)/DPIV(Ki)” value is reported as 1,131. Besides, in data set [3], the “Cytotox 100 μM (%) HEPG2” value amounted to 0% and the “Viability 100 μM (%) HEP-G2” value was 106.7%. Besides, at DP IV [4] (setting [5]), the pIC50 is 5.72.

In the case of `CC(C)CCn1cnc(-c2ccc(Cl)cc2Cl)c1CN` [Example 7b, C-[5-(2,4-Dichloro-phenyl)-3-(3-methyl-butyl)-3H-imidazol-4-yl]-methylamine], in data set [3], the “cytotoxic effects (summary in words)” value was “Strong cytotoxic effects; also recorded: strongest cytotoxicity”. In addition, the negative-log IC50 (pIC50) on DP IV [4] (setting [5]) was 5.09.

Take `CC(N)c1c(-c2ccc(Cl)cc2Cl)ncn1CCc1ccccc1` (stereo not drawn) [Example 2b, 1-[5-(2,4-Dichloro-phenyl)-3-phenethyl-3H-imidazol-4-yl]-ethylamine]: the “cytotoxic effects (summary in words)” value in data set [3] is listed as “No cytotoxic effects”. The pIC50 on DP IV [4] (setting [5]) was 4.49.

For the compound `CC(C)(C)CCn1cnc(-c2ccc(Cl)cc2Cl)c1CN` [Example 23b, C-[5-(2,4-dichloro-phenyl)-3-(3,3-dimethyl-butyl)-3H-imidazol-4-yl]-methylamine], the pIC50 in data set [1] was 6.04. In addition, on DP IV [2], the pKi is 7.63. Moreover, at DP9, the pIC50 is 4.25 and the “Selectivity DP9(IC50)/DPIV(Ki)” value is 2,377. Besides, in data set [3], the “Cytotox 100 μM (%) HEPG2” value worked out at 56.8% and the “Viability 100 μM (%) HEP-G2” value is reported as 98.6%. Further, the Observed cytotox in data set [3] (Hep-G2, observation of the cells) is reported as 50% lysis, 100%. Also, the negative-log IC50 (pIC50) on DP IV [4] (setting [5]) was 5.09.

Turning to `NCc1c(-c2ccc(Cl)cc2Cl)ncn1CCc1c[nH]c2ccccc12` [Example 1b, C-{5-(2,4-Dichloro-phenyl)-3-[2-(1H-indol-3-yl)-ethyl]-3H-imidazol-4-yl}-methylamine], the “cytotoxic effects (summary in words)” value in data set [3] is “Strong cytotoxic effects”. For the same compound, the pIC50 on DP IV [4] (setting [5]) was 5.43.

In the case of `COc1ccc(Cn2cnc(-c3ccc(Cl)cc3Cl)c2CN)c(OC)c1` [Example 8b, C-[5-(2,4-Dichloro-phenyl)-3-(2,4-dimethoxy-benzyl)-3H-imidazol-4-yl]-methylamine], the “cytotoxic effects (summary in words)” value in data set [3] is reported as “No cytotoxic effects”. Moreover, the pIC50 at DP IV [4] (setting [5]) was 4.90.

As to `CCCCCn1cnc(-c2ccc(Cl)cc2Cl)c1CN` [Example 12b, C-[5-(2,4-Dichloro-phenyl)-3-pentyl-3H-imidazol-4-yl]-methylamine], the “cytotoxic effects (summary in words)” value in data set [3] is reported as “No cytotoxic effects”. The pIC50 on DP IV [4] (setting [5]) is 5.19.

As for `NCc1c(-c2ccc(Cl)cc2Cl)ncn1CC12CC3CC(CC(C3)C1)C2` [Example 14b, C-[3-Adamantan-1-ylmethyl-5-(2,4-dichloro-phenyl)-3H-imidazol-4-yl]-methylamine], the “cytotoxic effects (summary in words)” value in data set [3] was “No cytotoxic effects”. In addition, the pIC50 at DP IV [4] (setting [5]) is 4.72.

In the case of `Cc1ccccc1Cn1cnc(-c2ccc(Cl)cc2Cl)c1C(C)N` (stereo not drawn) [Example 15b, 1-[5-(2,4-Dichloro-phenyl)-3-(2-methyl-benzyl)-3H-imidazol-4-yl]-ethylamine], in data set [3], the “cytotoxic effects (summary in words)” value is “No cytotoxic effects”. The pIC50 on DP IV [4] (setting [5]) was 4.72.

Compound `CC(C)(C)Cn1cnc(-c2ccc(Cl)cc2Cl)c1CN` [Example 11b, C-[5-(2,4-dichloro-phenyl)-3-(2,2-dimethyl-propyl)-3H-imidazol-4-yl]-methylamine] showed a pIC50 in data set [1] of 5.59. This compound gave a pKi at DP IV [2] of 7.24. At DPII, the “Selectivity DPII(IC50)/DPIV(Ki)” value was 1,457 and the pIC50 was 4.08. Besides, in data set [3], the “Cytotox 100 μM (%) HEPG2” value is 4.6%, the “Viability 100 μM (%) HEP-G2” value was found to be 113.1% and the “cytotoxic effects (summary in words)” value is listed as “No cytotoxic effects”. Besides, the pIC50 on DP IV [4] (setting [5]) is 5.19.

Turning to `NCc1c(-c2ccc(Cl)cc2Cl)ncn1Cc1cccnc1` [Example 66a, C-[5-(2,4-Dichloro-phenyl)-3-pyri-din-3-yl-methyl-3H-imid-azol-4-yl]-methyl-amine], at DP IV [4] (setting [6]), the pIC50 is 7.00.

As for `NCc1c(-c2ccc(Cl)cc2Cl)ncn1CCOCCO` [18b, 2-{2-[5-Aminomethyl-4-(2,4-dichloro-phenyl)-imidazol-1-yl]-ethoxy}-ethanol], on DP IV [4] (setting [5]), the pIC50 was 4.68.

`NCc1c(-c2ccc(Cl)cc2Cl)ncn1Cc1ccc2c(c1)OCO2` [Example 125b, C-[3-benzo[1,3]dioxol-5-ylmethyl-5-(2,4-dichloro-phenyl)-3H-imidazol-4-yl]-methylamine] had a pIC50 in data set [1] of 6.43. Moreover, at DP IV [2], the pKi is 7.42. Further, at DPII, the “Selectivity DPII(IC50)/DPIV(Ki)” value is 471 and the pIC50 was 4.75. In addition, on DP9, the pIC50 is 4.13 and the “Selectivity DP9(IC50)/DPIV(Ki)” value is on record as 1,966. For the same compound, in data set [3], the “Cytotox 100 μM (%) HEPG2” value is reported as 10.6% and the “Viability 100 μM (%) HEP-G2” value came to 88.9%.

As for `NCc1c(-c2ccc(F)cc2Cl)ncn1Cc1ccccc1` [Example 15, C-[3-Benzyl-5-(2-chloro-4-fluoro-phenyl)-3H-imid-azol-4-yl]-methyl-amine], the pIC50 at DP IV [4] (setting [6]) is 4.96.

`NCc1c(-c2ccc(Cl)cc2Cl)ncn1Cc1cccc(C(F)(F)F)c1F` [50b, C-[5-(2,4-Dichloro-phenyl)-3-(2-fluoro-3-trifluoromethyl-benzyl)-3H-imidazol-4-yl]-methylamine]: on DP IV [4] (setting [5]), the pIC50 was 4.81.

In the case of `NCc1c(-c2ccc(Cl)cc2Cl)ncn1CCNc1ccccc1` [41b, {2-[5-Aminomethyl-4-(2,4-dichloro-phenyl)-imidazol-1-yl]-ethyl}-phenyl-amine], the pIC50 at DP IV [4] (setting [5]) is 4.49.

Turning to `NCc1c(-c2ccc(Cl)cc2Cl)ncn1Cc1cccc(F)c1` [Example 42a, C-[5-(2,4-Dichloro-phenyl)-3-(3-fluoro-benzyl)-3H-imid-azol-4-yl]-methyl-amine], the pIC50 on DP IV [4] (setting [6]) was 6.00.

For `NCc1c(-c2ccc(F)cc2F)ncn1Cc1cccnc1` [Example 89a, C-[5-(2,4-Difluoro-phenyl)-3-pyri-din-3-yl-methyl-3H-imid-azol-4-yl]-methyl-amine], the pIC50 on DP IV [4] (setting [6]) is 4.65.

The values above are taken from patent publication US7728146B2, “Enzyme inhibitors” (Probiodrug AG, priority 2006, dated 2010).
